This is an account of results in patent publication US20230017661A1, “COMPOSITIONS AND MODULAR NANO- AND MICROPARTICLES FOR THE DELIVERY OF VARIOUS AGENTS AND USE THEREOF” (Veri Nano Inc., priority 2019, published 2023).

This data set is described as follows: Encapsulation efficiency by 1H NMR analysis of nanoparticles. Type of data set: physicochemical. The conditions noted are these: DMF internal standard, DMSO-d6, agent within the nanoparticle delivery system. Here is the method:
For the ^1H NMR analysis, the nanoparticle suspension was centrifuged at 3214 rcf for 30 min. The supernatant was decanted. DMF was added to the precipitate as the internal reference for ^1H NMR analysis and weighed the amount added. DMSO-d6, was added and heated to 60° C. to dissolve the sample. The ^1H NMR was performed at 60° C.

In turn, `CCCCCCCC/C=C\CCCCCCCC(=O)O` [oleic acid] returned an encapsulation efficiency of 19%.

In turn, `CCC(=O)OC/C=C(C)/C=C/C=C(C)/C=C/C1=C(C)CCCC1(C)C` [vitamin A-propionate, retinyl propionate] returned an encapsulation efficiency of 42.7%.
